Results published in patent US5932217A, “Peptides which inhibit adhesion between leukocytes and endothelial cells” (priority 1994, dated 1999).
Where no end group is shown, it is not given here.

How the values were obtained:
THP-1 cells = test: Generation of Factor Xa by monocytes; type: cell-based; settings: peptides 0.5 mM
Procedure: Factor Xa generation was determined by a modification of the method of Miletich et al. (1978), J. Biol. Chem. 253: 6908-6916. THP-1 cells (ATCC; 3×10^7 /ml) resuspended in RPMI 1640 (Bio Whittaker, Walkersville, Md.) were incubated with 100 μM ADP (Sigma), 2.5 mM CaCl2, 1 or 5 μg/ml Factor X (Hematologic Technologies Inc.) and 0.5 mM peptides at room temperature. After 20 minutes, 100 μl of the reaction mixture was transferred to 37° C. and supplemented with 100 μl of bovine factor VII- and Factor X-deficient plasma (Sigma). Coagulation was initiated by adding 100 μl of 25 mM CaCl2 and the clotting time was determined. Factor Xa procoagulant activity (ng/ml) was calculated by means of a standard curve constructed by serial concentrations of Factor Xa (Hematologic Technologies Inc.) from 50 to 250 ng/ml.

CD11b/CD18 = target: T1, CD11b/CD18 (Homo sapiens, UniProt P05107+P11215); test: Downmodulation of CD11b/CD18 on macrophages; type: cell-based; settings: wells coated with peptides 0.5 mM or mAb IB4 50 μg/ml
T1 construct: endogenous in cells; host or cells: human monocyte-derived macrophages from buffy coats
Procedure: Human monocytes were purified from buffy coats on Percoll gradients and cultured in 12.5% human serum in Teflon beakers. Macrophages were harvested from Teflon beakers after 6-8 days and suspended in HAP buffer. Terasaki wells were coated with 5 μl of peptides (0.5 mM) or anti-CD18 mAb IB4 (50 μg/ml). Control wells were coated with HAP. After 2 hours of incubation at RT, 5 μl of macrophages (5×10^5 /ml HAP) were added and allowed to spread for 45 mins. at 37° C. […] IgM-coated erythrocytes in buffer served as negative control. After washing, the number of erythrocytes bound per 100 leukocytes (adherence index) was quantitated visually under an inverted microscope.

[1] = system: rats inoculated intracisternally with Haemophilus influenzae type b lipooligosaccharide; test: Rat meningitis model (H. influenzae LOS); type: in vivo
Procedure: The experiments were performed according to established protocols (Wispelway et al., 1988, J. Clin. Invest., 82: 1339-1346). Purified Haemophilus influenzae type b strain DL42 lipooligosaccharide (LOS) was prepared for inoculation by sonication for 30 minutes, dilution to the desired concentration (20 ng/50 μl) in normal saline or PBS, and sonication for an additional 15 to 30 minutes just prior to use.
Briefly, anesthetized female Wistar rats were placed under a micromanipulator and inoculated intracisternally with a 25 gauge needle. After removal of 50 μl of CSF (without visible blood contamination), rats were inoculated intracisternally with 50 μl (20 ng) of LOS using a 1 ml syringe with a 25 gauge needle. Ten to fifteen minutes after inoculation with LOS, the rats were treated by intravenous administration of the test substance: a solution of an FHA peptide in PBS, a solution of a control peptide in PBS, or an equal volume of PBS alone.
Three hours after LOS inoculation, 5 μCi of ^125 I-radiolabelled albumin in 50 μl normal saline was administered intravenously. One hour later, CSF was collected via intracisternal puncture and blood samples were collected via intracardiac puncture. CSF leukocytosis was determined by manually counting white blood cells using a hemacytometer, and blood-brain barrier permeability was determined as the percent of radioactivity in whole blood that was present in the CSF. Blood samples were obtained immediately prior to inoculation, immediately prior to treatment, and at 4 hours post-inoculation for determination of peripheral white blood cell concentrations.

Human neutrophils = test: Binding of 125I-Factor X to neutrophils; settings: read-out: IC50 of inhibition of 125I-Factor X binding
Procedure: Human Factor X (Sigma or Hematologic Technologies Inc.) was labeled with ^125 I using Iodogen (Pierce Chemical Co.) Human neutrophils were isolated from heparinized blood according to the manufacturer's specification using Neutrophil Isolation Medium (Cardinal Associates, Santa Fe, N.M.) and washed three times with 5 mM EDTA-phosphate-buffered saline (PBS), pH 7.2, at 4° C. To eliminate platelet contamination,neutrophils were incubated with autologous serum containing 5 mM EDTA for 30 mins. at 37° C., washed three times with ice-cold PBS, pH 7.2, and resuspended in RPMI 1640 tissue culture medium (Whittaker M. A. Bioproducts, Walkersville, Md.) at 4° C. Binding of ^125 I-Factor X to neutrophils was measured based on a method described by Altieri et al. (1991) Science 254: 1200-1202. Briefly, 200 μl of neutrophils (1.5×10^7 /ml) were supplemented with 17.5 μl of 50 mM CaCl2, stimulated with 3.5 μl of 100 μM NH2 -formyl-Met-Leu-Phe (Sigma), and mixed with 30 μl of 10.3 μg/ml ^125 I-Factor X and 100 μl of 1.75 mM of peptide. Buffer alone and a peptide of scrambled sequence served as controls in each of the 3 experiments. After incubation for 20 mins. at room temperature, neutrophil-bound ^125 I-Factor X was separated from unbound ^125 I-Factor X by centrifugation of 300 μl aliquots through 50 μl of a mixture of Hi phenyl silicone oil DC 550 and methyl silicone oil DC 200 5:1 (Nye Inc. Specialty Lubricants, New Bedford, Mass.) at 12,000×g for 2 mins. Aliquots of the supernatant (cell free ^125 I-Factor X) and the cell pellet (cell bound ^125 I-Factor X) were counted in a gamma-counter. Nonspecific binding (~50,000 cpm) was determined by adding a 100 fold excess of unlabeled Factor X, and subtracted from total radioactivity (~500,000 cpm for controls).

[2] = 50% rabbit plasma at 37° C.
Procedure: To determine the stability of the FHA II peptide, the unmodified or the acetylated-amidated peptide were incubated in 50% rabbit plasma at 37° C.

T1 sequence (P05107 23-769, other chains not shown): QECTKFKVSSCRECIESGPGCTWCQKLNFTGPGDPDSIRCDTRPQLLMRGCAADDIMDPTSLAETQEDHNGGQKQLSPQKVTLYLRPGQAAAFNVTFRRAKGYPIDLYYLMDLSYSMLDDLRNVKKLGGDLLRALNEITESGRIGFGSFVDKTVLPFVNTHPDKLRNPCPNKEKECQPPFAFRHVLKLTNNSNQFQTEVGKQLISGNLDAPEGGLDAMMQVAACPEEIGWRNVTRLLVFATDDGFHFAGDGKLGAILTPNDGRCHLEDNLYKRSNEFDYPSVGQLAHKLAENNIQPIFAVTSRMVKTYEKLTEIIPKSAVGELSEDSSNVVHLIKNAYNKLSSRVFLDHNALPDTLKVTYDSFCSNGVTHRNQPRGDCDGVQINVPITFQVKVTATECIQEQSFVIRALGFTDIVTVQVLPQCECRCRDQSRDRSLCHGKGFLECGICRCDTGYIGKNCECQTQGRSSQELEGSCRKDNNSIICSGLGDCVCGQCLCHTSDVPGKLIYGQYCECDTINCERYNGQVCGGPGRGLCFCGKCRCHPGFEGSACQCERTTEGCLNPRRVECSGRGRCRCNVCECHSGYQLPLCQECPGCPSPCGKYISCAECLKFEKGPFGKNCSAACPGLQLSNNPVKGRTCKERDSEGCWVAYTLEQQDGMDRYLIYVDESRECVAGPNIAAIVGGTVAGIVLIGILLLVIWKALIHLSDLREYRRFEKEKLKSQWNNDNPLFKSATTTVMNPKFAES

CC(=O)N[C@@H](CC(C)C)C(=O)N[C@@H](CC(C)C)C(=O)N[C@H](C=O)CCCNC(=N)N [Leupeptin, reference compound]
Clotting time (THP-1 cells): 63.0 ± 4.0 s
Factor Xa (THP-1 cells; from standard curve): < 10.0 ng/mL

AADPHQGVLAQGDIIMDAKG [FHA Cc]
reduction of binding of C3bi-coated erythrocytes to macrophages (CD11b/CD18): no significant effect

Ac-VEEDTKG-NH2 [scrambled ac/am FHA II, VEEDTKG, reference compound]
BBB permeability ([1]; Experiment #3, 600 nmol): 7.74 ± 3.59%
Leukocytosis ([1]; Experiment #3, 600 nmol i.v., CSF 4 hours after LOS): 14,287 ± 10,199 cells/ml

ETKEVDG [FHA II, ETKEVDG]
IC50 (Human neutrophils): 10 µM
time in which concentration decreased by half [2]: 4 to 6 h

GTLLLRNDALTENGTVTISA [FHA Cd]
reduction of binding of C3bi-coated erythrocytes to macrophages (CD11b/CD18): no significant effect

GYDTKQEDG [Factor X II, reference compound]
IC50 (Human neutrophils): 500 µM

RADPHQGVLAQGDIIMDAKG [FHA Cb]
reduction of binding of C3bi-coated erythrocytes to macrophages (CD11b/CD18): no significant effect

RGDPHQGVLAQGDIIMDAKG [FHA Ca]
reduction of binding of C3bi-coated erythrocytes to macrophages (CD11b/CD18): 61±7%
neutropenia ([1]; peripheral white blood cells): No neutropenia was observed
